Laboratory results from ChEMBL document CHEMBL1201862, “PubChem BioAssay data set” (2004).
Calls of active or inactive are those of the source.

Assays:
[1] = target: Cytochrome P450 3A4 (Homo sapiens, UniProt P08684); conditions: Potency;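 note: confirmatory qHTS run detecting inhibitors and substrates of CYP3A4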
[2] = target: T1, DNA repair protein RAD52 homolog (Homo sapiens, UniProt P43351); assay type: functional, biochemical
T1 sequence (P43351 whole entry): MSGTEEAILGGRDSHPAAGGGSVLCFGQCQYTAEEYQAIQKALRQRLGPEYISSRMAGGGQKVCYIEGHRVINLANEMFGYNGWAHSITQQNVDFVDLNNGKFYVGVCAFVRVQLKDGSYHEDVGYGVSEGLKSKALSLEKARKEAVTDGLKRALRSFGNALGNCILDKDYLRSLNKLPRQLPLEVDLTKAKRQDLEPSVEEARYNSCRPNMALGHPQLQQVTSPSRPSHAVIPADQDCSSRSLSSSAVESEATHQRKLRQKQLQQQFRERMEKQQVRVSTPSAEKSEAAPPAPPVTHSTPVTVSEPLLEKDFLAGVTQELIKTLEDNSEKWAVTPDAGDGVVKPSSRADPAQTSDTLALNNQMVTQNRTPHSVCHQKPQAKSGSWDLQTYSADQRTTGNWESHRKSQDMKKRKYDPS

[3] = growth suppression of PTEN-null colon cells, dose response, cell-based, HCT116 PTEN knockout (AID 1047); assay type: functional;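 note: HCT116 colon tumor cells with PTEN knocked out; cells exposed to compound for 60 hours before readout; potency for loss of cell viability measured by luminescence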
[4] = growth suppression of beta-catenin-knockout colon cells, dose response, cell-based, HCT116, human colon tumor (AID 1045); assay type: functional;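 note: HCT116 colon tumor cells with beta catenin knocked out; cells exposed to compound for 60 hours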
[5] = microbe, parasite or virus in culture; assay type: functional; conditions: Mycobacterium tuberculosis
[6] = target: T2, Rac GTPase-activating protein 1 (Homo sapiens, UniProt Q9H0H5); assay: MgcRacGAP GTPase-activating activity inhibitors, confirmation, biochemical, ADP Hunter fluorescence, primary and confirmatory (AID 624330); assay type: functional
T2 sequence (Q9H0H5 whole entry): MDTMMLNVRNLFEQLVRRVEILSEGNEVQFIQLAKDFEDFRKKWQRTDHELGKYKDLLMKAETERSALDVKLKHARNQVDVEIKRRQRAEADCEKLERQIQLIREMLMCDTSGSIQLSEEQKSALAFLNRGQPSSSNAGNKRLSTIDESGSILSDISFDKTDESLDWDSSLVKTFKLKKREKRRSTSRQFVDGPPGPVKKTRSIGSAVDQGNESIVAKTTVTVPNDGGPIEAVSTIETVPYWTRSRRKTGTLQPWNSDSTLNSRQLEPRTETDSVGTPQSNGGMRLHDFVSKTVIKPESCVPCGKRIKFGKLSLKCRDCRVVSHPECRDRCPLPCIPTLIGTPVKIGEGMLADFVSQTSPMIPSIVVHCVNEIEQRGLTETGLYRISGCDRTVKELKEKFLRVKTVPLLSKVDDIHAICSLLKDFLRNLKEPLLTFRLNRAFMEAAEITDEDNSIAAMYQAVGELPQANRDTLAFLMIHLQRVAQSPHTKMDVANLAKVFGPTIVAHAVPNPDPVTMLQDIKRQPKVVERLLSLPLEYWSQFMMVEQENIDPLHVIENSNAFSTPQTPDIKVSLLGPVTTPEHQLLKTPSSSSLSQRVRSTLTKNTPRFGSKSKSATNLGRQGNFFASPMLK

[7] = cytotoxicity toward NIH3T3 fibroblasts, dose response, counter-screen, cell-based, ATP luminescence, mouse fibroblasts (AID 2010); assay type: functional;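 note: cells exposed to compound for about 90 hours before reading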
[8] = cells; assay type: functional
[9] = inhibitors of intracellular T. cruzi replication, confirmation, NIH3T3 host cells, beta-gal luminescence (AID 2044); assay type: functional, cell-based;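 note: intracellular parasites grown in NIH/3T3 mouse fibroblasts as host cells; luminescent beta-galactosidase reporter signal from transgenic T. cruzi replicating inside host cells; inhibitors lower the luminescence signal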
[10] = target: Eukaryotic translation initiation factor 4E (Mus musculus, UniProt P63073); assay: eIF4E–eIF4G protein interaction inhibitors, dose response, biochemical, TR-FRET (AID 855); assay type: functional;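 note: potency for disrupting eIF4E binding to eIF4GI seen as loss of FRET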
Eukaryotic translation initiation factor 4E, sequence (P63073 whole entry): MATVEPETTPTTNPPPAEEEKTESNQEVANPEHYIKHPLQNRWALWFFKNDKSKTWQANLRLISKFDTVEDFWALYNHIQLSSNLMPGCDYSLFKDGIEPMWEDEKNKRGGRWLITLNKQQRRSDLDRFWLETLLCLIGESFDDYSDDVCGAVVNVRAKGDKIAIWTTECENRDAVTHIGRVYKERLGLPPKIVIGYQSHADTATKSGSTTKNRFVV

[11] = target: T3, Heat shock factor protein 1 (Mus musculus, UniProt P38532); assay: HSF1 potentiators in luciferase reporter cells, confirmation, cell-based, NIH3T3, luminescence, dose retest (AID 435004); assay type: functional;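 note: stress induced by proteasome inhibitor MG132 added 30 min after compound; luciferase reporter driven by HSF1 response element in NIH3T3 cells; actives raise luminescence as potentiators of the MG132 stress response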
T3 sequence (P38532 whole entry): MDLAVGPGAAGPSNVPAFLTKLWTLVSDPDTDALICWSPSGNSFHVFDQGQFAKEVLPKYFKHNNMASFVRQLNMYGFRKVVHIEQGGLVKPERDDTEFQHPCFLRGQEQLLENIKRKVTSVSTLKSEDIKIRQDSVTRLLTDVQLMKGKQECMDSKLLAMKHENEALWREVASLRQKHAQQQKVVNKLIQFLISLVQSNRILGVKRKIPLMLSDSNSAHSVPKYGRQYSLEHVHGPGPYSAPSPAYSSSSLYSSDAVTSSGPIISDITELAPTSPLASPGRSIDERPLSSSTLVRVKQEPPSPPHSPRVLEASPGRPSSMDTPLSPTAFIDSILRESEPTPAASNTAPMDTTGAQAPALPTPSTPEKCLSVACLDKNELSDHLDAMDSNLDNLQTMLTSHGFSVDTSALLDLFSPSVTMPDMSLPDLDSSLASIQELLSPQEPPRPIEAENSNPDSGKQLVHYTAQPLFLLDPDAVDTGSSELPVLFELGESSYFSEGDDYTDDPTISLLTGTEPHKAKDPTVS

[12] = Luminescence Cell-Based Dose Response HTS to Identify Inhibitors of 5'UTR Stem-Loop Driven Prion Protein mRNA Translation in H4 Neuroglioblastoma Cells. [Related pubchem assays: 1827 (Project Summary), 1813 (Primary HTS)]; assay type: functional
[13] = inhibitors of SNCA 5'UTR-driven reporter translation, confirmation, H4 neuroglioma cells, luminescence (AID 1988); assay type: functional, cell-based
[14] = inhibitors of firefly luciferase expression or activity, dose response, H4 neuroglioma cells, luminescence (AID 1990); assay type: functional, cell-based
[15] = target: T4, Short transient receptor potential channel 4 (Mus musculus, UniProt Q9QUQ5); assay: mouse TRPC4 channel inhibitors, dose response, cell-based, HEK293 TRPC4/mu-opioid, Fluo-4 calcium (AID 434942); assay type: functional;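 note: potency of inhibitors blocking the TRPC4 calcium response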
T4 sequence (Q9QUQ5 whole entry): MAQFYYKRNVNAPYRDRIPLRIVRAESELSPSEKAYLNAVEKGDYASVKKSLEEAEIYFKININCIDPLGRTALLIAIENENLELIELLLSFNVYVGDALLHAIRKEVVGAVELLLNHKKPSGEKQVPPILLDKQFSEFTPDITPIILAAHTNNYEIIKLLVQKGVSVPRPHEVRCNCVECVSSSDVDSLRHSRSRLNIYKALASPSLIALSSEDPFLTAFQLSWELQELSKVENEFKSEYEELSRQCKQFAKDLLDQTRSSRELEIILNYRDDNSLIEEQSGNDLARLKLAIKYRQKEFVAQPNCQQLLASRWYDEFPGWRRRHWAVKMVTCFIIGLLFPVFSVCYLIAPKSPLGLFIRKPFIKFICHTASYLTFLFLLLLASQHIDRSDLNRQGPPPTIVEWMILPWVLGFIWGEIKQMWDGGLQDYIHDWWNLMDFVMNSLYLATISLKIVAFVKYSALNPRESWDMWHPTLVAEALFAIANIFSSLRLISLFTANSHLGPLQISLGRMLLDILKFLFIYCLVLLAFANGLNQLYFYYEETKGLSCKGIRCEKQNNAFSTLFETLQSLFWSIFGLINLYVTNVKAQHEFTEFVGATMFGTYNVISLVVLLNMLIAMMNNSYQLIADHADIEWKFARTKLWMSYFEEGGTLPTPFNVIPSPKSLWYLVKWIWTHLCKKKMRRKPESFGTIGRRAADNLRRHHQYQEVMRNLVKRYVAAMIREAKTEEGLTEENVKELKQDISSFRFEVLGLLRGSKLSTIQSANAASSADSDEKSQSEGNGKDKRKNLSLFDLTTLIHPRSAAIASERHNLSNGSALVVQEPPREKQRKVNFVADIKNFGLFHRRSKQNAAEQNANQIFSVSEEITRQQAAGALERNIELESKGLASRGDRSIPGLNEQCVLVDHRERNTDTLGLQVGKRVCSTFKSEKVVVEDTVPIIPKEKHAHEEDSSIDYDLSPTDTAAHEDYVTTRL

[16] = HEp-2 cell cytotoxicity, dose response, cytotoxicity control for RSV inhibitor project, HTS (AID 2410); assay type: functional; conditions: human respiratory syncytial virus
[17] = test system: Vero; assay: cells; assay type: functional; conditions: Chlorocebus sabaeus
[18] = target: T5, Ubiquitin-conjugating enzyme E2 N (Homo sapiens, UniProt P61088); assay type: functional;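 note: Dose-response confirmation in a TR-FRET assay detecting UBC13-driven polyubiquitin chain formation, inhibition measured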
T5 sequence (P61088 whole entry): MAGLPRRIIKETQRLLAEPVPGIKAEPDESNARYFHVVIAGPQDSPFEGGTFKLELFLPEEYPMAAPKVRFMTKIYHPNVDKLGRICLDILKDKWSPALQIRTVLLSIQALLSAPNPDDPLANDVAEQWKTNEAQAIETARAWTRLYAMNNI

[19] = Luminescence Cell-Based Dose Retest to Confirm Inhibitors of Cancer Stem Cells. [Related pubchem assays (depositor defined):AID2717, AID2721]; assay type: functional; conditions: Homo sapiens
[20] = target: Glucose-6-phosphate 1-dehydrogenase (Homo sapiens, UniProt P11413); assay: human G6PD enzyme inhibitors, dose response, selectivity assay for P. falciparum G6PD inhibitor project, biochemical, fluorescence (AID 504792); assay type: functional
Glucose-6-phosphate 1-dehydrogenase, sequence (P11413 whole entry): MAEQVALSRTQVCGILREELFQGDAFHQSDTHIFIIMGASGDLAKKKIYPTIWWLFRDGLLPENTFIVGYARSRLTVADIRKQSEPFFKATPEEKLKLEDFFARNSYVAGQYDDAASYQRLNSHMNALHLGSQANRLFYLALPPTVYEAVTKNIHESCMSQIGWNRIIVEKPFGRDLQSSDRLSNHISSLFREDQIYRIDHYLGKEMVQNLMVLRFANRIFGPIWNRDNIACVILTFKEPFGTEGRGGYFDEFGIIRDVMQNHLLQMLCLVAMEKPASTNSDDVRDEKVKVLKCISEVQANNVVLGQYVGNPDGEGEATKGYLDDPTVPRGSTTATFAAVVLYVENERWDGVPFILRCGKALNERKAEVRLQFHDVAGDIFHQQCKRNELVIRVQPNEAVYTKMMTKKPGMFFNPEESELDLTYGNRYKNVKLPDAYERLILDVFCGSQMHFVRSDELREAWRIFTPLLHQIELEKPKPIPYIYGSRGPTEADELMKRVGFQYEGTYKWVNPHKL

Cytochrome P450 3A4, sequence (P08684 whole entry): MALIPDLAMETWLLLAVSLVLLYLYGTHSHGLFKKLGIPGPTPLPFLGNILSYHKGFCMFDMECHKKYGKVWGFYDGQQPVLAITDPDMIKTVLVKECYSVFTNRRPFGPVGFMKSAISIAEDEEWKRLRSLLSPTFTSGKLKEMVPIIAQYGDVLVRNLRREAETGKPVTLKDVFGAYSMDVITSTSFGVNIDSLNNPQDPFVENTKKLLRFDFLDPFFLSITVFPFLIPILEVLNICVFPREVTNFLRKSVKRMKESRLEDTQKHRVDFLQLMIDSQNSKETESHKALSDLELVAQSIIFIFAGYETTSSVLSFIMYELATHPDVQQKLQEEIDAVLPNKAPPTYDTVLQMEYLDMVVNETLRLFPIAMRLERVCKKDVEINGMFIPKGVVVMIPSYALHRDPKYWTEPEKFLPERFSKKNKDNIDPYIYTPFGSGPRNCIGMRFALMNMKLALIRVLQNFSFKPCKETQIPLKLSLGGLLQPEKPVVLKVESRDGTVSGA

In the case of `CCC1=C2CC[C@H]3C(=O)NC(=O)[C@H]3[C@H]2[C@@]2(C)C(=O)N(CC3CC3)C(=O)N2C1=O`, the AC50 [1] is reported as 31.6 µM (inconclusive).

For `CCN(CC)CCN(C(=O)c1ccc(C(=O)c2ccccc2)cc1)c1nc2c(OC)cccc2s1`, the AC50 [2] was 17.2 µM (active).

For `CN(CCNC(=O)c1cc2c(=O)n(C)c3ccccc3c2n1C)Cc1ccccc1`, the EC50 [3] was 31.5 µM (active) and the EC50 [4] was 23 µM (active).

For `CCCCCCc1ccc(N2C[C@H](C)[C@@H](CC(=O)NCc3ccccc3)C2=O)cc1`, the CC50 [5] was > 40 µM (active).

With `CC1CCCCN1CC(=O)Nc1ccc(N2CCCCCC2)cc1` (centres undefined) the IC50 [6] was 101 µM (active) and the AC50 [2] was 17.4 µM (active).

With `Cc1nc2ccc(NC(=O)c3ccc([N+](=O)[O-])cc3[N+](=O)[O-])cc2s1` the EC50 [7] was > 60 µM (not active), the IC50 [8] was 1.85 µM (active) and the EC50 [9] was 0.654 µM (active).

With `Cc1ccc(S(=O)(=O)Oc2ccc(/N=N/c3ccc(-c4ccc(/N=N/c5c(O)ccc6cc(S(=O)(=O)O)cc(S(=O)(=O)O)c56)c(C)c4)cc3C)cc2)cc1` the AC50 [1] was 25.1 µM (inconclusive).

With `CNC(C)C(=O)NC(C(=O)N1CCCC1C(=O)Nc1ccc2[nH]ccc2c1)C(C)C` (centres undefined) the AC50 [2] was 7.54 µM (active).

With `COc1cc2c(cc1OC)C(c1ccccc1N)=NCC2` the AC50 [2] was 18.6 µM (active).

With `COc1ccccc1/C=C/C(=O)c1cccs1` the AC50 [1] was 25.1 µM (inconclusive).

In the case of `CC1=CC(=O)NP(=O)(Oc2ccc3ccccc3c2)N1` (centres undefined), the IC50 [6] is reported as 80.7 µM (active) and the IC50 [10] is reported as 31.2 µM (active).

For `CC1(C)OC2CC3C4CC(F)C5=CC(=O)C=C[C@@]5(C)[C@@]4(F)C(O)C[C@@]3(C)[C@]2(C(=O)CO)O1` (some centres undefined), the AC50 [1] was 39.8 µM (inconclusive).

In the case of `Cc1ccc(N(Cc2ccc(C(=O)Nc3ccccc3C(=O)NCc3ccco3)cc2)S(C)(=O)=O)cc1C`, the EC50 [11] is reported as > 260 µM (inactive), the EC50 [12] is reported as > 120 µM (not active) and the EC50 [13] is reported as 22.9 µM (active). For the same compound, the EC50 [14] was 17.5 µM (active).

In the case of `CCc1ccccc1N=C(S)N(CCCN(C)C)Cc1cc2cc3c(cc2nc1O)OCO3`, the EC50 [15] is reported as 1.06 µM (active).

With `Cc1ccn2cc(CCNC(=O)c3ccc(Br)o3)nc2c1` the EC50 [15] was 7.5 µM (active).

With `CC(C)(C)NC(=O)[C@@H]1C[C@@H]2CCCC[C@@H]2CN1C[C@@H](O)[C@H](Cc1ccccc1)NC(=O)[C@H](CC(N)=O)NC(=O)c1ccc2ccccc2n1` the CC50 [5] was > 40 µM (active).

With `COc1ccc(/N=c2\cc(-c3ccc(O)cc3)oc3ccccc23)cc1` the CC50 [5] was 32.9 µM (active).

With `COc1ccc(OC)c(Nc2nc(-c3sc(C)nc3C)cs2)c1` the CC50 [16] was 20.4 µM (active) and the CC50 [5] was > 40 µM (active).

For `C=CCn1c(SCC(=O)c2[nH]c(C)c(C(=O)OCC)c2C)nc2scc(-c3ccc(OC)cc3)c2c1=O`, the EC50 [3] was 1.49 µM (active), the EC50 [4] was 1.41 µM (active) and the CC50 [17] was 6.78 µM (active).

For `CCOC(=O)CSc1nc2ccccc2c(=O)n1CC1CCCC1`, the EC50 [15] was 6.68 µM (active).

In the case of `COC(=O)CNC(=O)C1(CC(C)C)C=CCN1C(C)=O` (centres undefined), the AC50 [1] is reported as 25.1 µM (inconclusive).

With `CCOC(=O)N1CCN(C(=O)C(=O)Nc2sc3c(c2C(N)=O)CC(C)(C)OC3)CC1` the IC50 [18] was > 20 µM (inactive).

With `CC(C)(C)NCc1ccccc1OCc1cccs1` the EC50 [15] was 3.76 µM (active).

In the case of `CCN(CC)c1cccc(O)c1`, the AC50 [1] is reported as 31.6 µM (inconclusive).

For `COc1ccc2[nH]c(SCc3nc(N)nc(Nc4ccccc4)n3)nc2c1`, the IC50 [18] was > 20 µM (inactive).

For `CCOc1ccc(OC(=O)c2ccc3c(=O)n4c(nc3c2)CCC4)cc1`, the IC50 [8] was 0.12 µM (active).

For `CC(=O)O[C@H]1[C@@H](O)[C@H](O)[C@H](Oc2c(O)c(C)c3c4c2[C@@H](C)CC[C@@H]4[C@@H](C)C[C@H]3C=C(C)C)O[C@H]1C`, the IC50 [18] was > 20 µM (inactive) and the AC50 [19] was 3.19 µM (active).

In the case of `COc1cccc(-c2cnc(NCc3cc(Cl)ccc3O)n2C)c1`, the CC50 [5] is reported as > 40 µM (active).

For `CCOC(=O)c1c(NC(=S)NC(=O)/C=C/c2cccs2)sc(C)c1C`, the EC50 [3] was 21.2 µM (active) and the EC50 [4] was 21.4 µM (active).

In the case of `CNC(=O)C1(C)C=CC2(CCCCC2)N1C(=O)OC` (centres undefined), the AC50 [1] is reported as 25.1 µM (inconclusive).

For `O=C(Cc1ccccc1)NCC(=O)OCC(=O)c1ccc([N+](=O)[O-])cc1`, the IC50 [20] was > 80 µM (inactive).
